The source of these data is paper PMC10746543, “Design principles for cyclin K molecular glue degraders” (Nature Chemical Biology, 2023).

One experiment concerns the target T1, CDK12–cyclin K and DDB1 (Homo sapiens, UniProt Q16531+Q9NYV4, K965R).
T1 construct: His6–CDK12 (a.a. 713–1,052); full-length or beta-propeller B domain deletion (ΔBPB: a.a. 396–705 deleted) constructs of His6–DDB1ΔBPB, StrepII–Avi–DDB1, or His6–Spy–DDB1; made in house; host or cells: Trichoplusia ni High Five insect cells (baculovirus)
Briefly: TR-FRET ternary complex formation assay (compound titration). The format is binding. In outline: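 A time delay of 70 μs preceded acquisition, limiting background fluorescence; the ratio of emission at 520 versus 490 nm gave the TR-FRET value.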

In the next experiment the test system is HEK293T cells. Briefly: Drug sensitivity assay (CellTiter-Glo viability) with or without MLN4924 pretreatment. The format is cell-based, human. As to conditions: for EC50: Homo sapiens, HEK-293T; for Toxicity rescue: MLN4924-mediated cytotoxicity rescue, 10 µM used where n.d. In a few lines:
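Cas9-expressing HEK293T cells receive either vehicle or 100 nM MLN4924, then compounds 2 h afterwards. After three days, luminescence-based viability is measured and calculated relative to DMSO.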
Background: Cellular ATP, detected with luciferase, serves as a proxy for viable cell number.

The subject of experiment [1] is cyclin K–eGFP degradation reporter. Briefly: Cyclin K reporter stability analysis (dual-color cyclin K–eGFP reporter). The format is cell-based, human. In outline: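 Readout: flow-cytometric eGFP/mCherry ratio (geometric means, round mCherry+ gate) relative to the average of three DMSO wells. Reporter line was HEK293T–Cas9, treated 5 h with compound.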
Where [2] appears, read: Supplementary Table 2, read-out: TR-FRET EC50 TR-FRET.
[3] abbreviates: in vitro complex formation, 50 nM CDK12–cyclin K, 100 nM DDB1, text and figures, read-out: TR-FRET EC50.
Setting [4] is: sheet MOESM7, read-out: log TR-FRET EC50 (converted).
The mark [5] stands for this setting: Supplementary Table 2, HEK293T viability, 72 h, compound alone, read-out: Cellular assays EC50.
[6] abbreviates: Supplementary Table 2, HEK293T cycK-eGFP reporter, 5 h, read-out: Cellular assays DC50.
[7] abbreviates: compound concentration 79.2001 nM.
The mark [8] stands for this setting: compound concentration 158.4 nM.
The mark [9] stands for this setting: compound concentration 309.6 nM.
Setting [10] is: compound concentration 626.401 nM.
Setting [11] is: compound concentration 1252.8 nM.
Setting [12] is: compound concentration 9936.01 nM.
[13] abbreviates: compound concentration 20016 nM.

“And” between values parts separate entries of the source, which are not always exact repeats. Equal values may be shown once. Read-outs that look alike come from different tables or passages of the source. A value given as a limit tells only on which side of the number the result lay.

By EC50 is commonly meant the concentration needed to bring the measured effect to its halfway point. The DC50 is the midpoint of the concentration-degradation curve.

T1 sequence (Q9NYV4 713-1052 K965R): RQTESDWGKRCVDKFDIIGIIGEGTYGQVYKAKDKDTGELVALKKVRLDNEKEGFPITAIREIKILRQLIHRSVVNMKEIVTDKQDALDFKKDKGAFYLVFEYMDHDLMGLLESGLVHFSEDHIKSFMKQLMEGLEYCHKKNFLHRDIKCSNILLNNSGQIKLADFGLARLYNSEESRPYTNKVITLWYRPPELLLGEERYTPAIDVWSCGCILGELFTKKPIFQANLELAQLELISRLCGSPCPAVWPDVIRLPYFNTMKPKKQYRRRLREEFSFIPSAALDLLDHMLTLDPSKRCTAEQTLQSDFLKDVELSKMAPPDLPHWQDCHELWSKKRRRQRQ
T1 sequence (O75909 1-267 partner): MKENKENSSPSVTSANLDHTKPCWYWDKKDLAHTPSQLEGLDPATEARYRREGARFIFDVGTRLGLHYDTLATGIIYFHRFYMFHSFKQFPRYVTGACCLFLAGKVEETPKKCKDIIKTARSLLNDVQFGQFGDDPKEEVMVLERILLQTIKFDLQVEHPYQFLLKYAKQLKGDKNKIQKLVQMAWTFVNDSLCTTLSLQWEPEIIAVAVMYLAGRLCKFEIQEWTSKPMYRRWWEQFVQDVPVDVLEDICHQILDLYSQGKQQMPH
T1 sequence (Q16531 whole entry): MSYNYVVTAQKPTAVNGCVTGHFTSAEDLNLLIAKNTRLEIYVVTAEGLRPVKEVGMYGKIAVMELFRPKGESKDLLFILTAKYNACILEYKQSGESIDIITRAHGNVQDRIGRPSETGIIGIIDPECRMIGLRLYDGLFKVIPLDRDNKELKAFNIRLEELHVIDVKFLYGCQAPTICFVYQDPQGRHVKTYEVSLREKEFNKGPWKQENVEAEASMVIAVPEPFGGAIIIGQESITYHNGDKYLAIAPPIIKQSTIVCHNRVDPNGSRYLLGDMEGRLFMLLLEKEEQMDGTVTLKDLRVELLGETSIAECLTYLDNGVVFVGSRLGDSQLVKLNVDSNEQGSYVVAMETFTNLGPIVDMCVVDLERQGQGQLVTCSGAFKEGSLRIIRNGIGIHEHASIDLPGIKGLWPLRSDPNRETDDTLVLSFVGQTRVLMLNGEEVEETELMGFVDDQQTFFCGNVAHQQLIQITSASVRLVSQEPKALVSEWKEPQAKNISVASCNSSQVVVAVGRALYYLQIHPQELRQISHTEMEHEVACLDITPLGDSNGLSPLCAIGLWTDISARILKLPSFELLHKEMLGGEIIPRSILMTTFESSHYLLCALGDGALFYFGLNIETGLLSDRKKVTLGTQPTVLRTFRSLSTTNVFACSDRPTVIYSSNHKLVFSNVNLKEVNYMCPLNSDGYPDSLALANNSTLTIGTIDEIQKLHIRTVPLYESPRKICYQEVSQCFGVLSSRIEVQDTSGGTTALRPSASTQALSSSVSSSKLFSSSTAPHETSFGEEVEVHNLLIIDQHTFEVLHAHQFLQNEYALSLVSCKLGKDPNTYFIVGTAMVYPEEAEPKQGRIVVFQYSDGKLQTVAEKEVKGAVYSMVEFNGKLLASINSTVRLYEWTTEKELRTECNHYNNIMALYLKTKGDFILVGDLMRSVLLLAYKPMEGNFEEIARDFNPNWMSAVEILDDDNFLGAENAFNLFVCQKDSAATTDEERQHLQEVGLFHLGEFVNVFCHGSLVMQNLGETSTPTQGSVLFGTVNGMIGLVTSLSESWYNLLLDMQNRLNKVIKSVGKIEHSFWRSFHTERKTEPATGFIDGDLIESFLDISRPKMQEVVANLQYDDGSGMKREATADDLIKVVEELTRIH

With `CC[C@H](CO)Nc1nc(Nc2ccc(-c3ccccn3)cc2)c2ncn(C(C)C)c2n1` [DRF053, reference compound], the EC50 at CDK12–cyclin K and DDB1 (setting [2]) was 704 nM; at CDK12–cyclin K and DDB1 (setting [3]) it was 704 ± 108 nM; at CDK12–cyclin K and DDB1 (setting [4]), 704 nM; with HEK293T cells (setting [5]), 1310 nM. The “TR-FRET signal at compound concentration 4.68 nM” value on CDK12–cyclin K and DDB1 (compound concentration 4.68 nM, raw replicate titration data) was 0.2134 and 0.2299 and 0.1361 and 0.1347. Moreover, the “TR-FRET signal at compound concentration 21.6 nM” value at CDK12–cyclin K and DDB1 (compound concentration 21.6 nM, raw replicate titration data) is 0.2243 and 0.2471 and 0.1497 and 0.153. Also, the “TR-FRET signal at compound concentration 36 nM” value at CDK12–cyclin K and DDB1 (compound concentration 36 nM, raw replicate titration data) is 0.2585 and 0.3171 and 0.1771 and 0.1787. In addition, the “TR-FRET signal at compound concentration 79.2001 nM” value at CDK12–cyclin K and DDB1 (compound concentration 79.2001 nM, raw replicate titration data) is 0.3449 and 0.4117 and 0.2284 and 0.2341. In addition, on CDK12–cyclin K and DDB1 (compound concentration 158.4 nM, raw replicate titration data), the “TR-FRET signal at compound concentration 158.4 nM” value was 0.4712 and 0.5868 and 0.3097 and 0.3219. Besides, the “TR-FRET signal at compound concentration 309.6 nM” value on CDK12–cyclin K and DDB1 (compound concentration 309.6 nM, raw replicate titration data) was 0.6548 and 0.8142 and 0.4579 and 0.474. Moreover, the “TR-FRET signal at compound concentration 626.401 nM” value at CDK12–cyclin K and DDB1 (compound concentration 626.401 nM, raw replicate titration data) is 0.9256 and 1.1545 and 0.6903 and 0.7002. Further, the “TR-FRET signal at compound concentration 1252.8 nM” value at CDK12–cyclin K and DDB1 (compound concentration 1252.8 nM, raw replicate titration data) is 1.214 and 1.445 and 0.9334 and 0.9779. Also, on CDK12–cyclin K and DDB1 (compound concentration 2448 nM, raw replicate titration data), the “TR-FRET signal at compound concentration 2448 nM” value was 1.442 and 1.672 and 1.232 and 1.263. Further, the “TR-FRET signal at compound concentration 9936.01 nM” value at CDK12–cyclin K and DDB1 (compound concentration 9936.01 nM, raw replicate titration data) is 1.602 and 1.881 and 1.44 and 1.453. Also, the “TR-FRET signal at compound concentration 20016 nM” value at CDK12–cyclin K and DDB1 (compound concentration 20016 nM, raw replicate titration data) was 1.655 and 1.896 and 1.497 and 1.485. Besides, the Toxicity rescue with HEK293T cells (Supplementary Table 2) is 387%. Also, the DC50 in experiment [1] (setting [6]) is more than 10000 nM.

For the compound `CCCCc1ccc(CNc2nc(N[C@H](CC)CO)nc3c2ncn3C(C)C)cc1` [DS03], the concentration giving a half-maximal response (EC50) at CDK12–cyclin K and DDB1 (setting [2]) was 185 nM; at CDK12–cyclin K and DDB1 (setting [3]), 185 ± 22 nM; at CDK12–cyclin K and DDB1 (setting [4]), 185 nM; with HEK293T cells (setting [5]), more than 10000 nM. Also, the “TR-FRET signal, individual replicate” value at CDK12–cyclin K and DDB1 (compound concentration 4.68 nM) was 0.1665 and 0.1912; on CDK12–cyclin K and DDB1 (compound concentration 21.6 nM), 0.2604 and 0.3178; on CDK12–cyclin K and DDB1 (compound concentration 36 nM), 0.4113 and 0.4843; at CDK12–cyclin K and DDB1 (setting [7]) it was 0.6704 and 0.7869; on CDK12–cyclin K and DDB1 (setting [8]), 0.9573 and 1.072; at CDK12–cyclin K and DDB1 (setting [9]), 1.2282 and 1.396. For the same compound, the “TR-FRET signal, individual replicate” value was 1.549 and 1.7468 at CDK12–cyclin K and DDB1 (setting [10]); 1.782 and 2.014 at CDK12–cyclin K and DDB1 (setting [11]); 1.858 and 2.0804 on CDK12–cyclin K and DDB1 (compound concentration 2448 nM); 1.8943 and 2.138 on CDK12–cyclin K and DDB1 (setting [12]); 1.837 and 2.0323 on CDK12–cyclin K and DDB1 (setting [13]). Moreover, the Toxicity rescue with HEK293T cells (Supplementary Table 2) stood at 0%. In addition, the DC50 in experiment [1] (setting [6]) was more than 10000 nM.

In the case of `CC[C@H](CO)Nc1nc(NCc2ccc(OCCO)cc2)c2ncn(C(C)C)c2n1` [DS61], the TR-FRET signal at CDK12–cyclin K and DDB1 (compound concentration 4.68 nM) is 0.1556 and 0.1596; on CDK12–cyclin K and DDB1 (compound concentration 21.6 nM), 0.2553 and 0.252; at CDK12–cyclin K and DDB1 (compound concentration 36 nM) it was 0.4296 and 0.427; on CDK12–cyclin K and DDB1 (setting [7]), 0.6728 and 0.6901; at CDK12–cyclin K and DDB1 (setting [8]) it was 0.9753 and 0.9579; at CDK12–cyclin K and DDB1 (setting [9]), 1.242 and 1.248. Besides, the TR-FRET signal at CDK12–cyclin K and DDB1 (setting [10]) is 1.483 and 1.517; at CDK12–cyclin K and DDB1 (setting [11]) it was 1.637 and 1.718; at CDK12–cyclin K and DDB1 (compound concentration 2448 nM), 1.781 and 1.804; at CDK12–cyclin K and DDB1 (setting [12]) it was 1.87 and 1.831; on CDK12–cyclin K and DDB1 (setting [13]) it was 1.812 and 1.801. Further, the EC50 was determined as 169 ± 7 nM at CDK12–cyclin K and DDB1 (setting [3]); 168 nM on CDK12–cyclin K and DDB1 (source data sheet correlations, read-out: TR-FRET EC50); 281 nM in the experiment on HEK293T cells (Supplementary Fig. 5, HEK293T, CellTiter Glo, 72h, read-out: Viability EC50, no MLN4924); 283 nM with HEK293T cells (setting [5]). Further, the Toxicity rescue in the experiment on HEK293T cells (Supplementary Table 2) is recorded as 278%. The DC50 in experiment [1] (source data sheet correlations, read-out: DC50) stood at 917 nM.
